From EP0409227A2, “Pyrimidine nucleosides, their preparation and pharmaceutical preparations” (MATTHES, Eckart, Dr., priority 1989, dated 1991) come the findings set out here.

One series concerns koloniebildender Zellen des Knochenmarks der Maus (CFU-GM). The series can be described thus: Growth inhibition of colony-forming bone marrow cells (CFU-GM). The class given is cell-based. To be noted: mouse bone marrow. Here is the method: (§1) Unter dem Aspekt einer möglichen Anwendung der Verbindungen am Menschen wurden ihre antiproliferativen Wirkungen an menschlichen Zellkulturen wie früher beschrieben getestet (E. Matthes et al. Biochem.Biophys.Res.Commun. 153, 825 (1988)). Dabei zeigte sich, daß z.B. 2′,3′-Didesoxy-3-fluor-5-methylcytidin gegenüber der T-Zellinie MT4 eine CD₅₀ von 190 µM aufweist. In einem weiteren Test, in dem eine mögliche Wachstumshemmung koloniebildender Zellen des Knochenmarks der Maus (CFU-GM) untersucht wurde (E. Matthes et al. Biochem.Biophys.Res.Commun. 165, 488 (1989), erwies sich diese Verbindung ebenfalls als kaum proliferationshemmend (CD₅₀ > 500 µM). Die Wirkung weiterer Verbindungen auf die Proliferation von MT4-Zellen ist in Tabelle 3 zusammengefaßt. Tabelle 3
For the compound `Cc1cn([C@H]2C[C@H](F)[C@@H](CO)O2)c(=O)nc1N` [2′,3′-Didesoxy-3′-fluor-5-methylcytidin], the CD₅₀ was greater than 500 µM.

The next series concerns MT4 Zellen. As to the kind of experiment: Cytotoxicity: inhibition of proliferation of MT4 cells. The class given is cell-based. To be noted: MT4 cells; 50 % inhibition of cell multiplication after 48 h. As to the method:
as §1
`Cc1cn([C@H]2C[C@H](F)[C@@H](CO)O2)c(=O)nc1N` [2′,3′-Didesoxy-3′-fluor-5-methylcytidin] showed a CD₅₀ of 190 µM.

For the next series, the target named is T1, HBV-Polymerase (Hepatitis B virus genotype D subtype ayw, UniProt P03156).
T1 construct: Es wurde zunächst die Hemmbarkeit der HBV-assoziierten Polymerase; host or cells: virus-associated endogenous polymerase
T1 sequence (P03156 whole entry): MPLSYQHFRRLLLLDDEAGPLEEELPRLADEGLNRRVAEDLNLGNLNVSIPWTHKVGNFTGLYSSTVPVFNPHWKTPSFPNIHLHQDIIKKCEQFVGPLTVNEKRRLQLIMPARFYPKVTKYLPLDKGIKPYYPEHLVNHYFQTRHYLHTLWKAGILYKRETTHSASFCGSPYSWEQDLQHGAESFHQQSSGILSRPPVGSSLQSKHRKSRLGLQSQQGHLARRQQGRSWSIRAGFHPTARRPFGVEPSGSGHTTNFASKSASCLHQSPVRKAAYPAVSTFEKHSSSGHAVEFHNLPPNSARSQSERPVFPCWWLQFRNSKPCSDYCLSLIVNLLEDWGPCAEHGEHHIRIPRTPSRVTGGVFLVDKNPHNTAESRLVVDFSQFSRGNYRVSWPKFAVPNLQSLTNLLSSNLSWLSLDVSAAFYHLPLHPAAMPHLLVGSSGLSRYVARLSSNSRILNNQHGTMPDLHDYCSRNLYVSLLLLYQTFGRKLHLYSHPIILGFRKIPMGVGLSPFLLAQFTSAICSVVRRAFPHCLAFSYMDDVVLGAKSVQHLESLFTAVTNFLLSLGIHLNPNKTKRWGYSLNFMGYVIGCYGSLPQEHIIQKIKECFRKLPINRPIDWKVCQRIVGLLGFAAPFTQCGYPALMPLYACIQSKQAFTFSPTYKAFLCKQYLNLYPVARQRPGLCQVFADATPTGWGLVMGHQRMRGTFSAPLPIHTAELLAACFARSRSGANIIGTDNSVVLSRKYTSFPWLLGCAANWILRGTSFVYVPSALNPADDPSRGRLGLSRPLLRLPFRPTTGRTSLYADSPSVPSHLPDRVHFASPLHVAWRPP
The series can be described thus: Inhibition of HBV polymerase activity by nucleoside triphosphate analogues (method of Kaplan et al.). The class given is biochemical. The conditions noted are these: 50 % inhibition of HBV polymerase activity; 3 h incubation at 37 °C; read-out: ID₅₀. An excerpt: Das Hepatitis B Virus (HBV) besitzt eine zirkuläre, partiell doppelsträngige DNA, welche nach Infektion einer Leberzelle durch eine viruseigene Polymerase repliziert wird. Dieser Vorgang setzt jedoch die Synthese einer RNA durch eine zelluläre RNA-Polymerase voraus. Nur diese RNA-Matrize - im Zusammenhang mit der Replikation auch als Prägenom bezeichnet - kann von der HBV-Polymerase für die Synthese zunächst eines RNA-DNA Hybrids und dann der doppelsträngigen DNA benutzt werden. Damit verfügt die HBV-Polymerase über eine enzymatische Aktivität, die der einer reversen Transcriptase ähnelt (Will et al., J.Virology 61, 904 (1987)). Es wurde zunächst die Hemmbarkeit der HBV-assoziierten Polymerase durch die 5′-Triphosphate der erfindungsgemäßen Verbindungen untersucht. Dazu wurde die von Kaplan et al. (J.Virology 12, 995 (1973)) angegebene Methode zur Bestimmung der HBV-Polymerase benutzt, wobei die zu testenden Triphosphate den Ansätzen in verschiedenen Konzentrationen zugesetzt wurden. Die Hemmung der Enzymreaktion wurde nach 3-stündiger Inkubation bei 37 °C durch Vergleich mit einem Kontrollwert ermittelt und daraus die Konzentration der zugesetzten Analoga bestimmt, die zu einer 50 %igen Hemmung der HBV-Polymerase-Aktivität führt (ID₅₀). Tabelle 1 zeigt die Ergebnisse, wobei insbesondere 2′,3′-Didesoxy-3′-fluor-5-methylcytidin durch einen Wert ID₅₀ von 0,03 µM herausragt und damit zu den stärksten bisher bekannten Hemmstoffen der HBV-Polymerase zu rechnen ist. Tabelle 1
In the case of `Cc1cn([C@H]2C[C@H](F)[C@@H](CO)O2)c(=O)nc1N` [2′,3′-Didesoxy-3′-fluor-5-methylcytidin], the IC50 was found to be 0.03 µM.

A further series deals with HBsAg-Sekretion von Hep G2 (2.2.15)-Zellen. As to the kind of experiment: Inhibition of HBsAg secretion of Hep G2 (2.2.15) cells (solid-phase radioimmunoassay of the medium). To be noted: nucleoside 0,01 µM; 4 days + 24 h; mean ± SD of five experiments. Format: cell-based, HBV. As to the method:
(§2) Die Testung der antiviralen Wirksamkeit der Nucleoside auf zelluärer Ebene erfolgte an einer menschlichen Hepatoblastom-Zellinie, die mit dem HBV-Genom tranfiziert wurde und sowohl das Oberflächenantigen des Virus (HBsAg) als auch die HBV-DNA permanent produziert und infektiöse Viruspartikel in das Medium abgibt (Hep G2-Zellen, Klon 2.2.15, Sells et al. Proc.Natl.Acad. Sci. 84, 1005 (1987)). Die Zellen (5x10⁵/ml) wurden in RPMI 1640-Medium mit 2 mM Glutamin und 10% fetalem Kälberserum allein oder zusammen mit den Nucleosid-Analoga für 4 Tage inkubiert, danach wurden den Ansätzen für 24 Stunden ³H-Thymidin bzw. ³H-Desoxyadenosin (3 µCi/ml) zugesetzt, die Zellen abzentrifugiert und darin die säureunlösliche Radioaktivität und damit der Einfluß auf die DNA-Synthese bestimmt. Im Inkubationsmedium wurde das HBsAg durch Festphasenradioimmunoassay (Travenol-Genentech Diagnostics, Cambridge, MA) entsprechend den Instruktionen des Herstellers ermittelt. Die Tabelle 4 faßt die Ergebnisse zusammen, die belegen, daß die getesteten Verbindungen hochwirksame und selektive Hemmstoffe der HBV-Vermehrung sind.
In the case of `Cc1cn([C@H]2C[C@H](F)[C@@H](CO)O2)c(=O)nc1N` [2′,3′-Didesoxy-3′-fluor-5-methylcytidin], the HBsAg is 7,0 ± 0,9 ng/ml.

Still in this series, the particulars now being: nucleoside 0,1 µM; 4 days + 24 h; mean ± SD of five experiments.
With `Cc1cn([C@H]2C[C@H](F)[C@@H](CO)O2)c(=O)nc1N` [2′,3′-Didesoxy-3′-fluor-5-methylcytidin], the HBsAg was 0,4 ± 0,1 ng/ml.

Staying with this series, now noted: nucleoside 0,01 µM; % of control without nucleoside (100).
As for `Cc1cn([C@H]2C[C@H](F)[C@@H](CO)O2)c(=O)nc1N` [2′,3′-Didesoxy-3′-fluor-5-methylcytidin], the HBsAg was determined as 36%.

The same series, now with this note: nucleoside 0,1 µM; % of control without nucleoside (100).
Consider `Cc1cn([C@H]2C[C@H](F)[C@@H](CO)O2)c(=O)nc1N` [2′,3′-Didesoxy-3′-fluor-5-methylcytidin], for which the HBsAg worked out at 2%.

The series is the same for the next values; noted with them: nucleoside 0,03 µM; 4 days + 24 h; mean ± SD of five experiments.
With `Cc1cn([C@H]2C[C@H](F)[C@@H](CO)O2)c(=O)nc1N` [2′,3′-Didesoxy-3′-fluor-5-methylcytidin], the HBsAg is reported as 2,4 ± 0,3 ng/ml.

Still in this series, the particulars now being: nucleoside 0,3 µM; 4 days + 24 h; mean ± SD of five experiments.
As for `Cc1cn([C@H]2C[C@H](F)[C@@H](CO)O2)c(=O)nc1N` [2′,3′-Didesoxy-3′-fluor-5-methylcytidin], the HBsAg is < 0,1 ng/ml.

The series is the same for the next values; noted with them: nucleoside 0,03 µM; % of control without nucleoside (100).
For the compound `Cc1cn([C@H]2C[C@H](F)[C@@H](CO)O2)c(=O)nc1N` [2′,3′-Didesoxy-3′-fluor-5-methylcytidin], the HBsAg is 12%.

The series is the same for the next values; noted with them: nucleoside 0,3 µM; % of control without nucleoside (100).
In turn, `Cc1cn([C@H]2C[C@H](F)[C@@H](CO)O2)c(=O)nc1N` [2′,3′-Didesoxy-3′-fluor-5-methylcytidin] displayed an HBsAg of less than 1%.

The series is the same for the next values; noted with them: nucleoside 0,003 µM; 4 days + 24 h; mean ± SD of five experiments.
On to `Cc1cn([C@H]2C[C@H](F)[C@@H](CO)O2)c(=O)nc1N` [2′,3′-Didesoxy-3′-fluor-5-methylcytidin], for which the HBsAg was 14,3 ± 2,4 ng/ml.

The series is the same for the next values; noted with them: nucleoside 0,003 µM; % of control without nucleoside (100).
Turning to `Cc1cn([C@H]2C[C@H](F)[C@@H](CO)O2)c(=O)nc1N` [2′,3′-Didesoxy-3′-fluor-5-methylcytidin], the HBsAg was determined as 74%.

The same series, now with this note: nucleoside 1,0 µM; 4 days + 24 h; mean ± SD of five experiments.
As to `Cc1cn([C@H]2C[C@H](F)[C@@H](CO)O2)c(=O)nc1N` [2′,3′-Didesoxy-3′-fluor-5-methylcytidin], the HBsAg is on record as < 0,1 ng/ml.

The series is the same for the next values; noted with them: nucleoside 1,0 µM; % of control without nucleoside (100).
The compound `Cc1cn([C@H]2C[C@H](F)[C@@H](CO)O2)c(=O)nc1N` [2′,3′-Didesoxy-3′-fluor-5-methylcytidin] yielded an HBsAg of less than 1%.

Still in this series, the particulars now being: nucleoside 3,0 µM; 4 days + 24 h; mean ± SD of five experiments.
Turning to `Cc1cn([C@H]2C[C@H](F)[C@@H](CO)O2)c(=O)nc1N` [2′,3′-Didesoxy-3′-fluor-5-methylcytidin], the HBsAg is given as < 0,1 ng/ml.

The same series, now with this note: nucleoside 3,0 µM; % of control without nucleoside (100).
Turning to `Cc1cn([C@H]2C[C@H](F)[C@@H](CO)O2)c(=O)nc1N` [2′,3′-Didesoxy-3′-fluor-5-methylcytidin], the HBsAg is less than 1%.

The test system of the next series is Hep G2 (2.2.15)-Zellen. The series can be described thus: DNA synthesis of Hep G2 (2.2.15) cells (acid-insoluble radioactivity after 3H-thymidine or 3H-deoxyadenosine). The class given is cell-based, menschlichen. The conditions noted are these: nucleoside 0,01 µM; 4 days, then 24 h label; mean ± SD of five experiments. As to the method:
as §2
For the compound `Cc1cn([C@H]2C[C@H](F)[C@@H](CO)O2)c(=O)nc1N` [2′,3′-Didesoxy-3′-fluor-5-methylcytidin], the “^3H-DNA” value was 15060 ± 1895 dpm/Kultur.

The same series, now with this note: nucleoside 0,1 µM; 4 days, then 24 h label; mean ± SD of five experiments.
As for `Cc1cn([C@H]2C[C@H](F)[C@@H](CO)O2)c(=O)nc1N` [2′,3′-Didesoxy-3′-fluor-5-methylcytidin], the “^3H-DNA” value worked out at 14350 ± 1520 dpm/Kultur.

Still in this series, the particulars now being: nucleoside 0,03 µM; 4 days, then 24 h label; mean ± SD of five experiments.
In the case of `Cc1cn([C@H]2C[C@H](F)[C@@H](CO)O2)c(=O)nc1N` [2′,3′-Didesoxy-3′-fluor-5-methylcytidin], the “^3H-DNA” value was determined as 15580 ± 1910 dpm/Kultur.

The series is the same for the next values; noted with them: nucleoside 0,3 µM; 4 days, then 24 h label; mean ± SD of five experiments.
Regarding `Cc1cn([C@H]2C[C@H](F)[C@@H](CO)O2)c(=O)nc1N` [2′,3′-Didesoxy-3′-fluor-5-methylcytidin], the “^3H-DNA” value stood at 13175 ± 1975 dpm/Kultur.

The same series, now with this note: nucleoside 0,003 µM; 4 days, then 24 h label; mean ± SD of five experiments.
Consider `Cc1cn([C@H]2C[C@H](F)[C@@H](CO)O2)c(=O)nc1N` [2′,3′-Didesoxy-3′-fluor-5-methylcytidin], for which the “^3H-DNA” value was 13270 ± 1650 dpm/Kultur.

The same series, now with this note: nucleoside 1,0 µM; 4 days, then 24 h label; mean ± SD of five experiments.
Take `Cc1cn([C@H]2C[C@H](F)[C@@H](CO)O2)c(=O)nc1N` [2′,3′-Didesoxy-3′-fluor-5-methylcytidin]: the “^3H-DNA” value was 8295 ± 1010 dpm/Kultur.

Staying with this series, now noted: nucleoside 3,0 µM; 4 days, then 24 h label; mean ± SD of five experiments.
In the case of `Cc1cn([C@H]2C[C@H](F)[C@@H](CO)O2)c(=O)nc1N` [2′,3′-Didesoxy-3′-fluor-5-methylcytidin], the “^3H-DNA” value is given as 2470 ± 295 dpm/Kultur.
